This note sets out measurements from US5482960A, “Nonpeptide endothelin antagonists” (Warner-Lambert Company, priority 1994, dated 1996).

One test addresses T1, recombinant human ETA R (Homo sapiens, UniProt P25101).
T1 construct: expressed in transfected cells; host or cells: Ltk- cells (membranes)
T1 sequence (P25101 21-427): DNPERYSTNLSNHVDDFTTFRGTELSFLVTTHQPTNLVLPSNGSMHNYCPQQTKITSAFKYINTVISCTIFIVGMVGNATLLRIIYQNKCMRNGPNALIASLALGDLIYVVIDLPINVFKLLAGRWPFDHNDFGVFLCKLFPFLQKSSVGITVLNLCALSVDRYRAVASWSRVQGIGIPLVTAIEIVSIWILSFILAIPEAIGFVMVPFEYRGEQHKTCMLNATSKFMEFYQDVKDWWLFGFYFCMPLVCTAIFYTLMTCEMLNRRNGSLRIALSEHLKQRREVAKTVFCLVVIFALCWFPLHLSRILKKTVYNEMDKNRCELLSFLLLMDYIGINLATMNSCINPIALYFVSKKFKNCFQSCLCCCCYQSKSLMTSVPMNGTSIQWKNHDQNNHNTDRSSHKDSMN
The class given is binding. The conditions noted are these: [125I]-ET-1 40 pM, 2 hours at 37° C., Ltk- cells, read-out: HERBA-A IC50. Here is the method:
(§1) Membranes were prepared from cultured cells by lysing cells in cold lysis buffer (5 mM HEPES, 2 mM EDTA, pH 7.4) and homogenizing with a Dounce "A" homogenizer. The homogenate was centrifuged at 30,000×g for 20 min at 4° C. […] Radioligand and competing ligands were prepared in binding buffer containing 20 mM Tris, 2 mM EDTA, and 0.1% BSA.

A further test deals with T2, recombinant human ETB R (Homo sapiens, UniProt P24530).
T2 construct: expressed in transfected cells; host or cells: CHO-K1 cells (membranes)
T2 sequence (P24530 27-442): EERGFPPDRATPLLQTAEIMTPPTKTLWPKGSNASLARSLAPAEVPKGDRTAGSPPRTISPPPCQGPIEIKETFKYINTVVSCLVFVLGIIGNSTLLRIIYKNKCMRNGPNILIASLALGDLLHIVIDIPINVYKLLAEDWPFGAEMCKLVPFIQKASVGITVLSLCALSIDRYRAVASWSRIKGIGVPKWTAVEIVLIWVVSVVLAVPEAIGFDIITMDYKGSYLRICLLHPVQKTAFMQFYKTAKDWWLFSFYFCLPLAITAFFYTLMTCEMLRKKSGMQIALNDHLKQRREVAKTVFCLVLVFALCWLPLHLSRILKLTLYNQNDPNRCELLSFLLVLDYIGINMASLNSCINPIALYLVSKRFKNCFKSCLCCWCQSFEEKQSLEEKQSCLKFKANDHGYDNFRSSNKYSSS
The class given is binding. The conditions noted are these: [125I]-ET-1 40 pM, 2 hours at 37° C., CHO-K1 cells, read-out: HERBA-B IC50. As to the method:
as §1

In test [1] the target is T3, ETA (rabbit renal artery vascular smooth muscle cells) (Oryctolagus cuniculus, UniProt A5A8K3).
T3 construct: rabbit renal artery vascular smooth muscle cells (ERBA-A); endogenous in cells; host or cells: cultured rabbit renal artery vascular smooth muscle cells (membranes)
T3 sequence (A5A8K3 21-427): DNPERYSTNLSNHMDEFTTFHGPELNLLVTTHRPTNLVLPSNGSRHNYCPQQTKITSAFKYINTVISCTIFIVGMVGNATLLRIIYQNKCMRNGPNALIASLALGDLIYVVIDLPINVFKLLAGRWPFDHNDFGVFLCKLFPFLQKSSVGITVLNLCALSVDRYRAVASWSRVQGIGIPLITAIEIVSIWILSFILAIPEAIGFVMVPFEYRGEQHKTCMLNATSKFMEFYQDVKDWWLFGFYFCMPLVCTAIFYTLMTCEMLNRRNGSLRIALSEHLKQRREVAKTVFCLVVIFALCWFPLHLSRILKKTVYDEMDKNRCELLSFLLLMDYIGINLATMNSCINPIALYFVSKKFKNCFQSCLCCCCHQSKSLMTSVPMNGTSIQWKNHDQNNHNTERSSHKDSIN
The class given is binding. The conditions noted are these: [125I]-ET-1 40 pM, 2 hours at 37° C.; read-out: ERBA-A IC50 (converted). As to the method: The compounds of Formula I are valuable antagonists of endothelin. […] Membranes were prepared from cultured cells by lysing cells in cold lysis buffer (5 mM HEPES, 2 mM EDTA, pH 7.4) and homogenizing with a Dounce "A" homogenizer. The homogenate was centrifuged at 30,000×g for 20 min at 4° C. […] Radioligand and competing ligands were prepared in binding buffer containing 20 mM Tris, 2 mM EDTA, and 0.1% BSA. Competing binding assays were initiated by combining membranes, [125I]-ET-1 (40 pM) and the competing ligand in a final volume of 250 uL and incubating for 2 hours at 37° C.

Test [2] concerns the target T4, rabbit femoral artery (ETA) (Oryctolagus cuniculus, UniProt A5A8K3).
T4 construct: Femoral and pulmonary arteries were isolated, cleaned of connective tissue, and cut into 4-mm rings; from tissue; host or cells: rabbit femoral artery rings, endothelium denuded
T4 sequence (A5A8K3 21-427): T3 sequence (A5A8K3 21-427)
Description: In vitro antagonism of ET-1 stimulated vasoconstriction (VERA-A) in the rabbit femoral artery (ETA). The class given is cell-based. As to the method: (§2) Male New Zealand rabbits were killed by cervical dislocation and exsanguination. Femoral and pulmonary arteries were isolated, cleaned of connective tissue, and cut into 4-mm rings. The endothelium was denuded by placing the rings over hypodermic tubing (32 gauge for femoral rings and 28 gauge for pulmonary rings, Small Parts, Inc, Miami, Fla.) and gently rolling them. […] Resting tension was adjusted to 3.0 g for femoral and 4.0 g pulmonary arteries; the rings were left for 90 minutes to equilibrate.

Test [3] has as its target T5, rabbit pulmonary artery (ETB) (Oryctolagus cuniculus, UniProt Q9N0W7).
T5 construct: Femoral and pulmonary arteries were isolated, cleaned of connective tissue, and cut into 4-mm rings; from tissue; host or cells: rabbit pulmonary artery rings, endothelium denuded
T5 sequence (Q9N0W7 27-441): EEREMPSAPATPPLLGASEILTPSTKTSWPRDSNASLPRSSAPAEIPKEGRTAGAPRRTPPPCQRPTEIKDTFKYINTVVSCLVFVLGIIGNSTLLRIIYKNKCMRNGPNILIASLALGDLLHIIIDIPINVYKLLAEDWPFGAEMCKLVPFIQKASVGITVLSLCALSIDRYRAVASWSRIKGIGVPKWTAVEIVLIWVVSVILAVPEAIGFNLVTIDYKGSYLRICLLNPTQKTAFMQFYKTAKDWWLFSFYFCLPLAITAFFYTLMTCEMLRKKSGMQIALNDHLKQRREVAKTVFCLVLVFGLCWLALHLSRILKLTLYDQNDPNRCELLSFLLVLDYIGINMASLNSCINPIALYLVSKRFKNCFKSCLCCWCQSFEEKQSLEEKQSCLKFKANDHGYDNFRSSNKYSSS
Description: Antagonism of sarafotoxin 6c stimulated vasoconstriction in the rabbit pulmonary artery (ETB) (VERA-B). The class given is cell-based. Here is the method: as §2

Broadly, the IC50 is the concentration at which inhibition is half-maximal. Regarding `COc1ccc(Cn2c(C(=O)O)c(Sc3cccc(OC)c3)c3cc(OC)c(OC)cc32)cc1` [Example 12, 5,6-Dimethoxy-1-(4-methoxy-benzyl)-3-(3-methoxy-phenylsulfanyl)-1H-indole-2-carboxylic acid], the concentration for half-maximal inhibition (IC50) stood at 160 nM at recombinant human ETA R and 870 nM at recombinant human ETB R.
Take `COc1cccc(Sc2c(C(=O)O)n(Cc3ccc4c(c3)OCO4)c3ccccc23)c1` [Example 3, 1-Benzo[1,3]dioxol-5-ylmethyl-3-(3-methoxy-phenylsulfanyl)-1H-indole-2-carboxylic acid]: the IC50 in test [1] was 500 nM; at recombinant human ETA R, 90 nM; at recombinant human ETB R it was 7400 nM.
`COc1cccc(Sc2c(C(=O)O)n(Cc3ccc4c(c3)OCO4)c3cc(OC)c(OC)cc23)c1` [Example 2]: the IC50 is 100 nM in test [2], 30 nM in test [1] and 1100 nM on recombinant human ETB R.
For the compound `COc1ccc(Sc2c(C(=O)O)n(Cc3cc(OC)c4c(c3)OCO4)c3cc4c(cc23)OCO4)cc1OC` [Example 9, 7-(3,4-Dimethoxy-phenylsulfanyl)-5-(7-methoxy-benzo[1,3]dioxol-5-ylmethyl)-5H-[1,3]dioxolo[4,5-f]indole-6-carboxylic acid], the IC50 at recombinant human ETA R was 170 nM; on recombinant human ETB R, 420 nM.
For `COc1ccc(Sc2c(C(=O)O)n(Cc3ccc4c(c3)OCO4)c3cc4c(cc23)OCO4)cc1OC` [Example 8, 5-Benzo [1,3]dioxo1-5-ylmethyl-7-(3,4-dimethoxyphenylsulfanyl)-5H-[1,3]dioxolo[4,5-f]indole-6-carboxylicacid], the IC50 in test [2] was 316 nM; at recombinant human ETA R it was 39 nM; at recombinant human ETB R it was 170 nM; in test [3], 316 nM.
As to `COc1cc2c(Sc3ccc4c(c3)OCO4)c(C(=O)O)n(Cc3ccc4c(c3)OCO4)c2cc1OC` [Example 17, 1-Benzo[1,3]dioxol-5-ylmethyl-3-(benzo[1,3]dioxol-5-ylsulfanyl)-5,6-dimethoxy-1H-indole-2-carboxylic acid], the results for the IC50 in test [2] and in test [1] were 50.1 nM and 631 nM, respectively.
Regarding `CCCOc1ccc2c(Sc3cccc(OC)c3)c(C(=O)O)n(Cc3ccc4c(c3)OCO4)c2c1` [Example 10, 1-Benzo[1,3]dioxol-5-ylmethyl-3-(3-methoxy-phenylsulfanyl)-6-propoxy-1H-indole-2-carboxylic acid], the figures for the IC50 on recombinant human ETA R and at recombinant human ETB R were 590 nM and 6700 nM, respectively.
As for `O=C(O)c1c(Sc2ccc3c(c2)OCO3)c2ccccc2n1Cc1ccc2c(c1)OCO2` [Example 5, 1-Benzo[1,3]dioxol-5-ylmethyl-3-(benzo[1,3]dioxol-5-ylsulfanyl)-1H-indole-2-carboxylic acid], the IC50 in test [1] was 570 nM; on recombinant human ETA R, 380 nM; on recombinant human ETB R, 4500 nM.
The corresponding values for `COc1cccc(Sc2c(C(=O)O)n(Cc3ccccc3)c3ccccc23)c1` [Example 4, 1-Benzyl-3-(3-methoxy-phenylsulfanyl)-1H-indole-2carboxylic acid] are 7300 nM, 4600 nM and 1500 nM.
As to `COc1cccc(Sc2c(C(=O)O)n(Cc3cc(OC)c4c(c3)OCO4)c3cc(OC)c(OC)cc23)c1` [Example 11, 5,6-Dimethoxy-1-(7-methoxy-benzo[1,3]dioxol-5-ylmethyl)-3-(3-methoxy-phenylsulfanyl)-1H-indole-2carboxylic acid], the IC50 on recombinant human ETA R amounted to 58 nM; at recombinant human ETB R, 1100 nM.
For `COc1cccc(Sc2c(C(=O)O)n(Cc3ccc4c(c3)OCO4)c3cc(OC)c(OCc4ccccc4)cc23)c1` [Example 13, 1-Benzo[1,3]dioxol-5-ylmethyl-5-benzyloxy-6-methoxy-3-(3-methoxy-phenylsulfanyl)-1H-indole-2-carboxylic acid] the same measures were 81 nM and 690 nM.
For `O=C(O)c1c(Sc2ccccc2)c2ccccc2n1-c1ccc2c(c1)OCO2` [Example 1, 1-Benzo-[1,3]dioxol-5-yl-3-phenylsulfanyl-1H-indole-2-carboxylic acid], the IC50 was 1900 nM in test [1], 3200 nM at recombinant human ETA R and 6500 nM on recombinant human ETB R.
For the compound `COc1cc2c(Sc3cc(OC)c(OC)c(OC)c3)c(C(=O)O)n(Cc3ccc4c(c3)OCO4)c2cc1OC` [Example 14, 1-Benzo[1,3]dioxol-5-ylmethyl-5,6-dimethoxy-3-(3,4,5-trimethoxy-phenylsulfanyl)-1H-indole-2-carboxylic acid], the half-maximal inhibitory concentration (IC50) was 31.6 nM in test [2] and 3160 nM in test [3].
As for `COc1cccc(Sc2c(C(=O)O)n(Cc3ccc4c(c3)OCO4)c3cc4c(cc23)OCO4)c1` [Example 6, 5-Benzo[1,3]dioxol-5-ylmethyl-7-(3-methoxy-phenylsulfanyl)-5H-[1,3]dioxolo[4,5-f]indole-6-carboxylic acid], the IC50 was found to be 84 nM on recombinant human ETA R and 710 nM at recombinant human ETB R.
The corresponding values for `COc1cc2c(Sc3ccc4c(c3)OCO4)c(C(=O)O)n(Cc3ccc4c(c3)OCO4)c2cc1OCc1ccccc1` [Example 15, 1-Benzo[1,3]dioxol-5-ylmethyl-3-(benzo[1,3]dioxol-5-ylsulfanyl)-6-benzyloxy-5-methoxy-1H-indole-2-carboxylic acid] are 690 nM and 53 nM.
The corresponding values for `COc1cccc(Sc2c(C(=O)O)n(Cc3ccc(OC)cc3OCC(=O)O)c3cc(OC)c(OC)cc23)c1` [Example 16, 1-(2-Carboxymethoxy-4-methoxy-benzyl)-5,6-dimethoxy-3-(3-methoxy-phenylsulfanyl)-1H-indole-2carboxylic acid] are 480 nM and 1200 nM.
For `COc1cccc(Sc2c(C(=O)O)n(Cc3cc(OC)c4c(c3)OCO4)c3cc4c(cc23)OCO4)c1` [Example 7, 5-(7-Methoxy-benzo[1,3]dioxol-5-ylmethyl)-7-(3-methoxy-phenylsulfanyl)-5H-[1,3]dioxolo[4,5-f]indole-6carboxylic acid] the same measures were 380 nM and 2900 nM.
